Target: T1, TACE (Homo sapiens, UniProt P78536)
T1 construct: made in house; host or cells: mammalian cells or insect cells
Assay: TACE inhibition experiment (in vitro)
Format: biochemical

T1 sequence (P78536 215-824): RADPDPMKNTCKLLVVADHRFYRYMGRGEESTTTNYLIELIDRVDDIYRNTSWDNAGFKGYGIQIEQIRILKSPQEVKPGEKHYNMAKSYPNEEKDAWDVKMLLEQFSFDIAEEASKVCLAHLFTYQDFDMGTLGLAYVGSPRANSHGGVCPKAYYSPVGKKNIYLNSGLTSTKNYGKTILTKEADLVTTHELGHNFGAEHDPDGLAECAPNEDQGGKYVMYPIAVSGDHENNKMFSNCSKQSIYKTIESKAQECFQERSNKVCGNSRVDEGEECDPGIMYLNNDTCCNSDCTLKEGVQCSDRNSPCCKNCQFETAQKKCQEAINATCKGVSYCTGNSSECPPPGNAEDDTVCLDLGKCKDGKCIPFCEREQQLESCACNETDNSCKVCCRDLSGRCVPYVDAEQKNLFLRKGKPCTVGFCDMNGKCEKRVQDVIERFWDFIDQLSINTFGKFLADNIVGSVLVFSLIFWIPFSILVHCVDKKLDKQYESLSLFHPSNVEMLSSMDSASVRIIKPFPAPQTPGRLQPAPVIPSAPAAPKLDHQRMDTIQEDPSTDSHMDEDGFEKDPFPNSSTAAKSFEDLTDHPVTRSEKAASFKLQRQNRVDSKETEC

| SMILES | IC50 [nM] |
| --- | --- |
| Cc1cc(COc2ccc(S(=O)(=O)CC(/C=C/C3(C)CCOCC3)N(O)C=O)cc2)c2ccccc2n1 (stereo not shown) [Example I-143] | 3.3 |
| Cc1ccc2nc(C)cc(COc3ccc(S(=O)(=O)CC(c4ccc(C)nc4)N(O)C=O)cc3)c2c1 (stereo not shown) [Example I-147] | 4.3 |
| Cc1ccc2nc(C)cc(COc3ccc(S(=O)(=O)CC([C@@H]4CSC(=O)N4C)N(O)C=O)cc3)c2c1 (stereo partly shown) [Example I-148] | 13 |
| Cc1cc(COc2ccc(S(=O)(=O)CC(CC3=CCN(C(=O)OC(C)(C)C)CC3(C)C)N(O)C=O)cc2)c2ccccc2n1 (stereo not shown) [Example I-152] | 13 |
| Cc1cc(COc2ccc(S(=O)(=O)CC(C3CCCN(CC(C)C)C3)N(O)C=O)cc2)c2ccccc2n1 (stereo not shown) [Example I-154] | 31 |
| CCN1CCC(C(CS(=O)(=O)c2ccc(OCc3cc(C)nc4ccccc34)cc2)N(O)C=O)CC1 (stereo not shown) [Example I-156] | 33 |
| Cc1cc(COc2ccc(S(=O)(=O)CC(N(O)C=O)C3(C)CCN(C(=O)OC(C)(C)C)CC3)cc2)c2ccccc2n1 (stereo not shown) [Example I-161] | 44 |
| CCC(CC)C(=O)N1CCC(=CC(CS(=O)(=O)c2ccc(OCc3cc(C)nc4ccc(C)cc34)cc2)N(O)C=O)CC1 (stereo not shown) [Example I-173] | 5 |

Continued by falling IC50, values first:

| IC50 [nM] | SMILES |
| --- | --- |
| 210 | COc1ccc(CCC(CS(=O)(=O)c2ccc(OCc3cc(C)nc4ccccc34)cc2)N(O)C=O)c(C)c1C (stereo not shown) [Example I-145] |
| 50 | CCC(CC)CN1CCCC(C(CS(=O)(=O)c2ccc(OCc3cc(C)nc4ccccc34)cc2)N(O)C=O)C1 (stereo not shown) [Example I-160] |
| 33 | CCN1CCCC(C(CS(=O)(=O)c2ccc(OCc3cc(C)nc4ccccc34)cc2)N(O)C=O)C1 (stereo not shown) [Example I-153] |
| 26 | CCN1CCCC(CC(CS(=O)(=O)c2ccc(OCc3cc(C)nc4ccccc34)cc2)N(O)C=O)C1 (stereo not shown) [Example I-158] |
| 18 | Cc1cc(COc2ccc(S(=O)(=O)CC(/C=C3\CCN(CC(C)C)CC3(C)C)N(O)C=O)cc2)c2ccccc2n1 (stereo not shown) [Example I-142] |
| 15 | CCC(CC)CN1CCC(=CC(CS(=O)(=O)c2ccc(OCc3cc(C)nc4ccc(C)cc34)cc2)N(O)C=O)CC1 (stereo not shown) [Example I-174] |
| 13 | Cc1cc(COc2ccc(S(=O)(=O)CC(CC3CCCN(C(=O)OC(C)(C)C)C3)N(O)C=O)cc2)c2ccccc2n1 (stereo not shown) [Example I-157] |
| 11 | CCC(CC)C(=O)N1CCC(CC(CS(=O)(=O)c2ccc(OCc3cc(C)nc4ccc(C)cc34)cc2)N(O)C=O)CC1 (stereo not shown) [Example I-175] |
| 9.4 | Cc1cc(COc2ccc(S(=O)(=O)CC(CCC3=CCCC(O)C3)N(O)C=O)cc2)c2ccccc2n1 (stereo not shown) [Example I-146] |
| 7.2 | Cc1cc(COc2ccc(S(=O)(=O)CC(CCC3(C)CCOCC3)N(O)C=O)cc2)c2ccccc2n1 (stereo not shown) [Example I-144] |
| 3.3 | CCC(CC)C(=O)N1CC/C(=C\C(CS(=O)(=O)c2ccc(OCc3cc(C)nc4ccccc34)cc2)N(O)C=O)C(C)(C)C1 (stereo not shown) [Example I-141] |

— patent publication US7511144B2, “Reverse hydroxamic acid derivatives” (Kaken Pharmaceutical Co., Ltd., priority 2001, dated 2009)
